# Laboratory results: patent US20250002475A1 (EPICS THERAPEUTICS, priority 2023, published 2025)
# What was measured:
# [1] = target: T1, recombinant METTL3/METTL14 complex (Homo sapiens, UniProt Q86U44); assay: METTL3/14 Scintillation Proximity Assay (SPA), RNA methyltransferase activity; format: biochemical; conditions: 5.31 nM METTL3/14 complex, 250 nM RNA substrate, 1 μM 3H-SAM, 90 min; for compounds marked * best of the two separated forms
# T1 construct: purchased Active Motif 311970; host or cells: Sf9 cells
# T1 sequence (Q86U44 whole entry): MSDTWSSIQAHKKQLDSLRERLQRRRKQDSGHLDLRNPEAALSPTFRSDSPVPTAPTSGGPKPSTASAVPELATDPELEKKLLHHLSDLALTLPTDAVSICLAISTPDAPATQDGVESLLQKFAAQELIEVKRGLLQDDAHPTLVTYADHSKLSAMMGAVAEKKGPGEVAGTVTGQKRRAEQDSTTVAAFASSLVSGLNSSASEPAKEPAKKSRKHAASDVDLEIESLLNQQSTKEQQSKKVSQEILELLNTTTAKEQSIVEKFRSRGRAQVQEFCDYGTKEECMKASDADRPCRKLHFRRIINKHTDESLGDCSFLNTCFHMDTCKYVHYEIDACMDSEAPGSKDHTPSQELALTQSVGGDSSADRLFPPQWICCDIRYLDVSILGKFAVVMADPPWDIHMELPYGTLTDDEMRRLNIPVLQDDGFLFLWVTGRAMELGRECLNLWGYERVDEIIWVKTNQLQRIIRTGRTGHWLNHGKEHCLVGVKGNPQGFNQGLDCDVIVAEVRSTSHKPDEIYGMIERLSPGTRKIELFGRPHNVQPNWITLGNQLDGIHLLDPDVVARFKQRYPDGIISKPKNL
# T1 sequence (Q9HCE5 whole entry partner): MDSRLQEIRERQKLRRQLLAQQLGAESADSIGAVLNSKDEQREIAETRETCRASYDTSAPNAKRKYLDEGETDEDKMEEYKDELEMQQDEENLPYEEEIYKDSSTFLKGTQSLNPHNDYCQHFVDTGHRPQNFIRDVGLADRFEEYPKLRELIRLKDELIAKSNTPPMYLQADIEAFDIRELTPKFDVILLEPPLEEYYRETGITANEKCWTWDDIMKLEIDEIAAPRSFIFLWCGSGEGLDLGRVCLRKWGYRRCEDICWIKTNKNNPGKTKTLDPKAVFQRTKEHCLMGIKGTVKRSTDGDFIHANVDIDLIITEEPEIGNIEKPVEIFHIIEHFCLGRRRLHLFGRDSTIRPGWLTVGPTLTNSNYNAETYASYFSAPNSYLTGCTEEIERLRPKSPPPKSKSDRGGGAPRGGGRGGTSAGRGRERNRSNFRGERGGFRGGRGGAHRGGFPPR
# Caov-3 cells = assay: Caov-3 cellular viability assay (ATP-Lite, 72 h); format: cell-based; conditions: Homo sapiens, ATP-Lite luminescence, % viability relative to DMSO
# Summary of the method: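 IC50 values come from concentration-response fits of luminescent ATP content (ATP-Lite One Step), normalised as % viability versus DMSO. Compound exposure was 72 h at 37 °C in RPMI-1640/10% FBS with 0.1% final DMSO. Wells held 10000 cells each.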
# Kasumi-1 cells = assay: Kasumi-1 cellular viability assay (ATP-Lite, 72 h); format: cell-based; conditions: Homo sapiens, ATP-Lite luminescence, % viability relative to DMSO
# Summary of the method: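 Viability was read by ATP-Lite One Step luminescence after 72 h compound treatment at 37 °C/5% CO2, normalised to DMSO control, with IC50 fitted from concentration-response. Cells were Kasumi-1 (AML FAB M2) at 15000 per well in RPMI-1640/10% FBS, 0.1% DMSO final.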
SMILES,IC50 [1] [nM],IC50 (Caov-3 cells) [nM],IC50 (Kasumi-1 cells) [nM]
"c1nnc(-c2cn(C3(c4ccc(N5CCC[C@@H](NCC6CC6)C5)cn4)COC3)nn2)cc1N1CCCC1 [Compound 202, (R)-N-(cyclopropylmethyl)-1-(6-(3-(4-(5-(pyrrolidin-1-yl)pyridazin-3-yl)-1H-1,2,3-triazol-1-yl)oxetan-3-yl)pyridin-3-yl)piperidin-3-amine]",≤ 50,≤ 500,≤ 500
CCN(C)c1cncc(-c2cn(C(C)n3ccc(N4CCC[C@@H](NCC5CC5)C4)cc3=O)nn2)c1 (stereo partly drawn) [Compound 203],≤ 50,≤ 500,≤ 500
CC(n1cc(-c2cncc(NCCO)c2)nn1)n1ccc(N2CCC[C@@H](NCC3CC3)C2)cc1=O (stereo partly drawn) [Compound 205],≤ 50,500 to 5000,> 5000
"c1ncc(N2CCCC2)cc1-c1cn(C2(c3ccc(N4CCC[C@@H](NCC5CC5)C4)nn3)COC2)nn1 [Compound 212, (R)-N-(cyclopropylmethyl)-1-(6-(3-(4-(5-(pyrrolidin-1-yl)pyridin-3-yl)-1H-1,2,3-triazol-1-yl)oxetan-3-yl)pyridazin-3-yl)piperidin-3-amine]",≤ 50,≤ 500,≤ 500
"c1ncc(N2CCCC2)nc1-c1cn(C2(c3ccc(N4CCC[C@@H](NCC5CC5)C4)nn3)COC2)nn1 [Compound 213, (R)-N-(cyclopropylmethyl)-1-(6-(3-(4-(6-(pyrrolidin-1-yl)pyrazin-2-yl)-1H-1,2,3-triazol-1-yl)oxetan-3-yl)pyridazin-3-yl)piperidin-3-amine]",≤ 50,≤ 500,≤ 500
"FC1(F)CCN(c2cncc(-c3cn(C4(c5ccc(N6CCC[C@@H](NCC7CC7)C6)cn5)COC4)nn3)n2)C1 [Compound 215, (R)-N-(cyclopropylmethyl)-1-(6-(3-(4-(6-(3,3-difluoropyrrolidin-1-yl)pyrazin-2-yl)-1H-1,2,3-triazol-1-yl)oxetan-3-yl)pyridin-3-V)piperidin-3-amine]",≤ 50,≤ 500,≤ 500
"c1cc(C2(n3cc(-c4cncc(N5CC6CC6C5)n4)nn3)COC2)ncc1N1CCC[C@@H](NCC2CC2)C1 (stereo partly drawn) [Compound 216, (3R)-1-(6-(3-(4-(6-(3-azabicyclo[3.1.0]hexan-3-yl)pyrazin-2-yl)-1H-1.2.3-triazol-1-yl)oxetan-3-yl)pyridin-3-yl)-N-(cyclopropylmethyl)piperidin-3-amine]",≤ 50,≤ 500,≤ 500
"c1cc(C2(n3cc(-c4cncc(N5CC6(COC6)C5)n4)nn3)COC2)ncc1N1CCC[C@@H](NCC2CC2)C1 [Compound 221, (R)-1-(6-(3-(4-(6-(2-oxa-6-azaspiro[3.3]heptan-6-yl)pyrazin-2-yl)-1H-1,2,3-triazol-1-yl)oxetan-3-yl)pyridin-3-yl)-N-(cyclopropylmethyl)piperidin-3-amine]",≤ 50,500 to 5000,500 to 5000
"c1cc(C2(n3cc(-c4cncc(N5CCC6(CC6)C5)n4)nn3)COC2)ncc1N1CCC[C@@H](NCC2CC2)C1 [Compound 222, (R)-1-(6-(3-(4-(6-(5-azaspiro[2.4]heptan-5-yl)pyrazin-2-yl)-1H-1,2,3-triazol-1-yl)oxetan-3-yl)pyridin-3-yl)-N-(cyclopropylmethyl)piperidin-3-amine]",≤ 50,≤ 500,≤ 500
"CC(c1nnc(-c2cncc(N3CCCC3)n2)s1)n1ccc(N2CCC[C@@H](NCC3CC3)C2)cc1=O (stereo partly drawn) [Compound 228, 4-((R)-3-((cyclopropylmethyl)amino)piperidin-1-yl)-1-(1-(5-(6-(pyrrolidin-1-yl)pyrazin-2-yl)-1,3,4-thiadiazol-2-yl)ethyl)pyridin-2(1H)-one]",≤ 50,≤ 500,≤ 500
"CC(c1nnc(-c2cncc(N(C)C)n2)s1)n1ccc(N2CCC[C@@H](NCC3CC3)C2)cc1=O (stereo partly drawn) [Compound 231, 4-((R)-3-((cyclopropylmethyl)amino)piperidin-1-yl)-1-(1-(5-(6-(dimethylamino)pyrazin-2-yl)-1,3,4-thiadiazol-2-yl)ethyl)pyridin-2(1H)-one]",≤ 50,≤ 500,≤ 500
"CC(c1cnc(-c2cncc(N3CCCC3)n2)s1)n1ccc(N2CCC[C@@H](NCC3CC3)C2)cc1=O (stereo partly drawn) [Compound 233, 4-((R)-3-((cyclopropylmethyl)amino)piperidin-1-yl)-1-(1-(2-(6-(pyrrolidin-1-yl)pyrazin-2-yl)thiazol-5-yl)ethyl)pyridin-2(1H)-one]",≤ 50,≤ 500,≤ 500
"CC(n1cc(-c2cncc(N3CCC4(CC4)C3)n2)nn1)n1ccc(N2CCC[C@@H](NCC3CC3)C2)cc1=O (stereo partly drawn) [Compound 235, 1-(1-(4-(6-(5-azaspiro[2.4]heptan-5-yl)pyrazin-2-yl)-1H-1,2,3-triazol-1-yl)ethyl)-4-((R)-3-((cyclopropylmethyl)amino)piperidin-1-yl)pyridin-2(1H)-one]",≤ 50,≤ 500,≤ 500
"O=C(Nc1cncc(N2CCCC2)n1)C1(c2ccc(N3CCC[C@@H](NCC4CC4)C3)cn2)COC1 [Compound 248, (R)-3-(5-(3-((cyclopropylmethyl)amino)piperidin-1-yl)pyridin-2-yl)-N-(6-(pyrrolidin-1-yl)pyrazin-2-yl)oxetane-3-carboxamide]",≤ 50,≤ 500,≤ 500

# The next lines start with results.
IC50 [1] [nM],SMILES,IC50 (Caov-3 cells) [nM],IC50 (Kasumi-1 cells) [nM]
≤ 50,"CC(c1cnn(-c2cncc(N(C)C)c2)c1)n1ccc(N2CCC[C@@H](NCC3CC3)C2)cc1=O (stereo partly drawn) [Compound 196, 4-((R)-3-((cyclopropylmethyl)amino)piperidin-1-yl)-1-(1-(1-(5-(dimethylamino)pyridin-3-yl)-1H-pyrazol-4-yl)ethyl)pyridin-2(1H)-one]",≤ 500,≤ 500
≤ 50,CC(n1cc(-c2cncc(N3CC(F)(F)C3)c2)nn1)n1ccc(N2CCC[C@@H](NCC3CC3)C2)cc1=O (stereo partly drawn) [Compound 197],500 to 5000,500 to 5000
≤ 50,"O=c1cc(N2CCC[C@@H](NCC3CC3)C2)ccn1Cn1cc(-c2cncc(N3CCCC3)n2)nn1 [Compound 201, (R)-4-(3-((cyclopropylmethyl)amino)piperidin-1-yl)-1-((4-(6-(pyrrolidin-1-yl)pyrazin-2-yl)-1H-1,2,3-triazol-1-yl)methyl)pyridin-2(1H)-one]",≤ 500,≤ 500
≤ 50,"c1cc(N2CCC[C@@H](NCC3CC3)C2)ncc1C1(n2cc(-c3cncc(N4CCCC4)n3)nn2)COC1 [Compound 207, (R)-N-(cyclopropylmethyl)-1-(5-(3-(4-(6-(pyrrolidin-1-yl)pyrazin-2-yl)-1H-1,2,3-triazol-1-yl)oxetan-3-yl)pyridin-2-yl)piperidin-3-amine]",≤ 500,≤ 500
≤ 50,"CC(C(=O)Nc1cncc(N2CCCC2)c1)n1ccc(N2CCC[C@@H](NCC3CCC3)C2)cc1=O (stereo partly drawn) [Compound 208, 2-(4-((R)-3-((cyclobutylmethyl)amino)piperidin-1-yl)-2-oxopyridin-1(2H)-yl)-N-(5-(pyrrolidin-1-yl)pyridin-3-yl)propanamide]",500 to 5000,500 to 5000
≤ 50,"CC1(C)CCN(c2cncc(-c3cn(C4(c5ccc(N6CCC[C@@H](NCC7CC7)C6)cn5)COC4)nn3)n2)C1 [Compound 214, (R)-N-(cyclopropylmethyl)-1-(6-(3-(4-(6-(3,3-dimethylpyrrolidin-1-yl)pyrazin-2-yl)-1H-1,2,3-triazol-1-yl)oxetan-3-yl)pyridin-3-yl)piperidin-3-amine]",≤ 500,≤ 500
≤ 50,"O=C(Nc1cc(=O)n2ccccc2n1)C1(c2ccc(N3CCC[C@@H](NCC4CC4)C3)cn2)COC1 [Compound 217, (R)-3-(5-(3-((cyclopropylmethyl)amino)piperidin-1-yl)pyridin-2-yl)-N-(4-oxo-4H-pyrido[1,2-a]pyrimidin-2-yl)oxetane-3-carboxamide]",≤ 500,≤ 500
≤ 50,"c1ncc(N2CCCC2)cc1-c1cn(C2(c3ccc(N4CCC[C@@H](NCC5CC5)C4)nc3)COC2)nn1 [Compound 223, (R)-N-(cyclopropylmethyl)-1-(5-(3-(4-(5-(pyrrolidin-1-yl)pyridin-3-yl)-1H-1,2,3-triazol-1-yl)oxetan-3-yl)pyridin-2-yl)piperidin-3-amine]",≤ 500,≤ 500
≤ 50,"O=C(Nc1cc(=O)n2ccccc2n1)C1(c2ccc(N3CCC[C@@H](NCC4CCC4)C3)cn2)COC1 [Compound 239, (R)-3-(5-(3-((cyclobutylmethyl)amino)piperidin-1-yl)pyridin-2-yl)-N-(4-oxo-4H-pyrido[1,2-a]pyrimidin-2-yl)oxetane-3-carboxamide]",≤ 500,≤ 500
≤ 50,"C[C@@H]1CCN(c2cncc(-c3cn(C4(c5ccc(N6CCC[C@@H](NCC7CC7)C6)cn5)COC4)nn3)n2)C1 [Compound 244, (R)-N-(cyclopropylmethyl)-1-(6-(3-(4-(6-((R)-3-methylpyrrolidin-1-yl)pyrazin-2-yl)-1H-1,2,3-triazol-1-yl)oxetan-3-yl)pyridin-3-yl)piperidin-3-amine]",≤ 500,≤ 500
≤ 50,"COc1cncc(-c2cn(C3(c4ccc(N5CCC[C@@H](NCC6CC6)C5)cn4)COC3)nn2)c1 [Compound 249, (R)-N-(cyclopropylmethyl)-1-(6-(3-(4-(5-methoxypyridin-3-yl)-1H-1,2,3-triazol-1-yl)oxetan-3-yl)pyridin-3-yl)piperidin-3-amine]",≤ 500,≤ 500
